Patent US20150051202A1, “TRIAZOLOPYRAZINE DERIVATIVES” (Merck Patent GmbH, priority 2012, published 2015)

Assays:
[1] = system: tumors over-expressing IDO; conditions: several tumor models, monotherapy; cited from earlier work
GCN2 = GCN2 (Homo sapiens, UniProt Q9P2K8); experiment: GCN2 enzyme assay (TR-FRET Lanthascreen, GFP-eIF2alpha substrate); assay type: biochemical
Procedure, shortened: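 GCN2 (30 nM) incubated at room temperature with 10 μM ATP and 80 nM GFP-eIF2alpha in 50 mM Hepes pH 7.0, 10 mM MgCl2, 5 mM MnCl2, 2 mM DTT, 0.1% BSA, 1% DMSO. Reaction stopped with EDTA; phospho-eIF2alpha detected by antibody TR-FRET, excitation 340 nm.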

SYK = biological target: T1, SYK (Homo sapiens, UniProt P43405); experiment: SYK enzyme assay (Flash plate assay / Caliper mobility shift assay); assay type: biochemical
T1 construct: purchased BPS Bioscience, CA, USA
Procedure, shortened: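 Flashplate: 2.5 nM SYK, 400 nM biotinylated peptide and 10 μM ATP with 33P-ATP, pH 7.5, 1 h at 30 °C, EDTA stop, radioactivity read, background with 0.1 μM staurosporine. Caliper: 90 min at 25 °C in HEPES pH 7.5, 1 mM MgCl2, 1 mM DTT, mobility-shift percent conversion of fluorescent peptide. IC50 from dose-response in both.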

murine model of RA = conditions: cited from earlier work
RA = RA Phase II studies in humans; cited from earlier work
3 LL lung carcinoma = conditions: mice; Rodriguez 2004; cited from earlier work
[2] = 100% corresponds to zero effect, −50% corresponds to IC50

GCN2, sequence (Q9P2K8 whole entry): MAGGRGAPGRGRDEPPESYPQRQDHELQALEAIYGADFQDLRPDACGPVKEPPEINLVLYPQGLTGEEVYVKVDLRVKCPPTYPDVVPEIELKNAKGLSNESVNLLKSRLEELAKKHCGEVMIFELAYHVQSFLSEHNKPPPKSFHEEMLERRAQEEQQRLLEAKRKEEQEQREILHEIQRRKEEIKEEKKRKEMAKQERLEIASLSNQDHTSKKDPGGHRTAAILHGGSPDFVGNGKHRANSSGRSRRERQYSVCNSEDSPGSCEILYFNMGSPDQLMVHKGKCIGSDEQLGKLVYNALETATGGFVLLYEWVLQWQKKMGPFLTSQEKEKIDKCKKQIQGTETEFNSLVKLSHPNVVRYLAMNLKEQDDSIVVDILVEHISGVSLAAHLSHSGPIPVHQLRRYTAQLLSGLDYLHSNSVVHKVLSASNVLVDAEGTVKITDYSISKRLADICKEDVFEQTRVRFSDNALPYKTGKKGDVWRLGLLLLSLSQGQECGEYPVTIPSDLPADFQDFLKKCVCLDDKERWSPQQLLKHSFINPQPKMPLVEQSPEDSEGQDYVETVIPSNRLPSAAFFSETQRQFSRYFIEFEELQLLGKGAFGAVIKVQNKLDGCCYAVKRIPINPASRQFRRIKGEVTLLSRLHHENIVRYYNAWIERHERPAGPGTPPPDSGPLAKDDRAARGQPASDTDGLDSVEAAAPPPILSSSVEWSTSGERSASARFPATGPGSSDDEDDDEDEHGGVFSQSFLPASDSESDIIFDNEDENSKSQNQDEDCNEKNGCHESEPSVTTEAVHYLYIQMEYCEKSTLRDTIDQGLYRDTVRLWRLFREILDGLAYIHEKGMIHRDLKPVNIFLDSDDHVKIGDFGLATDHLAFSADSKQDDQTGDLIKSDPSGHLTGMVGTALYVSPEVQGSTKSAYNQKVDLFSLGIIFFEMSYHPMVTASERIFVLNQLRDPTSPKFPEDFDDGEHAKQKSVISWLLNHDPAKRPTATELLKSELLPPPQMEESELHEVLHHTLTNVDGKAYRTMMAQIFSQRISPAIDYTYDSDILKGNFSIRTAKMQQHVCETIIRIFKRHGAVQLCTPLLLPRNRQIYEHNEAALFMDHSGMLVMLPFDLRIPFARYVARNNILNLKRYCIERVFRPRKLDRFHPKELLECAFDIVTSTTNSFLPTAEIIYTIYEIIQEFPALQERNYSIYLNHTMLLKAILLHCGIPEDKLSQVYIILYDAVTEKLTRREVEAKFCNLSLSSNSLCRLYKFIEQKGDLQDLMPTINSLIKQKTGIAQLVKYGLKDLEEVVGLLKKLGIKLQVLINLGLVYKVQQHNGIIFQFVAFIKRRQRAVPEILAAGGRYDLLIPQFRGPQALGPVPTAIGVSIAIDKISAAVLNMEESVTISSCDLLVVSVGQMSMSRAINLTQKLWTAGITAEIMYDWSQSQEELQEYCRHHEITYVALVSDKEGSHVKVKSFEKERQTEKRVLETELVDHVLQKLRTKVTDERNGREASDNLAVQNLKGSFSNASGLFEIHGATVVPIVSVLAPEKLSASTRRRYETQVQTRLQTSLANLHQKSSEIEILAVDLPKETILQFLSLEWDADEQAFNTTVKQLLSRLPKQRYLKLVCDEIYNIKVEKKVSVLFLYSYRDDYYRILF

Compound	IC50 (GCN2)	IC50 (SYK)	further results
Cn1cc(C[C@H](N)C(=O)O)c2ccccc21 [Compound 1MT, 1 methyl-tryptophan]	–	–	tumor regression [1]: unable to elicit tumor regression
COc1cc(Nc2nc3cncc(-c4cnn(CCC(C)C)c4)n3n2)ccc1N1CCN(C)CC1 [Compound A76, [3-methoxy-4-(4-methyl-piperazin-1-yl)-phenyl]-{5-[1-(3-methyl-butyl)-1H-pyrazol-4-yl]-[1,2,4]triazolo[1,5-a]pyrazin-2-yl}-amine]	< 1 µM	1 to 5 µM	–
COc1cc(Nc2nc3cncc(-c4cnn(C5CCOCC5)c4)n3n2)ccc1N1CCN(C)CC1 [Compound A77, [3-methoxy-4-(4-methyl-piperazin-1-yl)-phenyl]-{5-[1-(tetrahydro-pyran-4-yl)-1H-pyrazol-4-yl]-[1,2,4]triazolo[1,5-a]pyrazin-2-yl}-amine]	< 1 µM	1 to 5 µM	–
COc1cc(Nc2nc3cncc(-c4cnn(C)c4)n3n2)ccc1CN1CCOCC1 [Compound A78, (3-methoxy-4-morpholin-4-ylmethyl-phenyl)-[5-(1-methyl-1H-pyrazol-4-yl)-[1,2,4]triazolo[1,5-a]pyrazin-2-yl]-amine]	< 1 µM	1 to 5 µM	–
COc1cc(N2CCN(C)CC2)ccc1Nc1nc2cncc(-c3cnn(C)c3)n2n1 [Compound A79, [2-methoxy-4-(4-methyl-piperazin-1-yl)-phenyl]-[5-(1-methyl-1H-pyrazol-4-yl)-[1,2,4]triazolo[1,5-a]pyrazin-2-yl]-amine]	5 to 10 µM	–	SYK (enzyme assay) % at 3 μM (SYK; [2]): −9@3%
Cn1cc(-c2cncc3nc(Nc4cccc(N5CCOCC5)c4)nn23)cn1 [Compound A80, [5-(1-methyl-1H-pyrazol-4-yl)-[1,2,4]triazolo[1,5-a]pyrazin-2-yl]-(3-morpholin-4-yl-phenyl)-amine]	< 1 µM	–	SYK (enzyme assay) % at 1 μM (SYK; at 1 μM, 100% corresponds to zero effect, −50% corresponds to IC50): −26@1%
CC(=O)Nc1ccc(Nc2nc3cncc(-c4cnn(C)c4)n3n2)cc1C [Compound A81, N-{2-methyl-4-[5-(1-methyl-1H-pyrazol-4-yl)-[1,2,4]triazolo[1,5-a]pyrazin-2-ylamino]-phenyl}-acetamide]	< 1 µM	1 to 5 µM	–
Cc1cc(Nc2nc3cncc(-c4cnn(C)c4)n3n2)ccc1NC(=O)C1CCNCC1 [Compound A82, piperidine-4-carboxylic acid {2-methyl-4-[5-(1-methyl-1H-pyrazol-4-yl)-[1,2,4]triazolo[1,5-a]pyrazin-2-ylamino]-phenyl}-amide]	< 1 µM	1 to 5 µM	–
Cc1cc(Nc2nc3cncc(-c4cnn(C)c4)n3n2)ccc1NC(=O)C1CCOCC1 [Compound A83, tetrahydro-pyran-4-carboxylic acid {2-methyl-4-[5-(1-methyl-1H-pyrazol-4-yl)-[1,2,4]triazolo[1,5-a]pyrazin-2-ylamino]-phenyl}-amide]	< 1 µM	5 to 10 µM	–
COc1cc(Nc2nc3cncc(-c4cnn(C)c4)n3n2)ccc1NC(=O)C1CCNCC1 [Compound A84, piperidine-4-carboxylic acid {2-methoxy-4-[5-(1-methyl-1H-pyrazol-4-yl)-[1,2,4]triazolo[1,5-a]pyrazin-2-ylamino]-phenyl}-amide]	< 1 µM	5 to 10 µM	–
COc1cc(Nc2nc3cncc(-c4cnn(C)c4)n3n2)ccc1NC(C)=O [Compound A85, N-{2-methoxy-4-[5-(1-methyl-1H-pyrazol-4-yl)-[1,2,4]triazolo[1,5-a]pyrazin-2-ylamino]-phenyl}-acetamide]	< 1 µM	1 to 5 µM	–
COc1cc(Nc2nc3cncc(-c4cccc(O)c4)n3n2)ccc1N1CCN(C)CC1 [Compound A86, 3-{2-[3-methoxy-4-(4-methyl-piperazin-1-yl)-phenylamino]-[1,2,4]triazolo[1,5-a]pyrazin-5-yl}-phenol]	< 1 µM	< 1 µM	–
COc1cc(Nc2nc3cncc(-c4ccc(O)cc4)n3n2)ccc1N1CCN(C)CC1 [Compound A87, 4-{2-[3-methoxy-4-(4-methyl-piperazin-1-yl)-phenylamino]-[1,2,4]triazolo[1,5-a]pyrazin-5-yl}-phenol]	< 1 µM	< 1 µM	–
CN1CCN(c2ncc(Nc3nc4cncc(-c5cnn(C)c5)n4n3)cn2)CC1 [Compound A88, [2-(4-methyl-piperazin-1-yl)-pyrimidin-5-yl]-[5-(1-methyl-1H-pyrazol-4-yl)-[1,2,4]triazolo[1,5-a]pyrazin-2-yl]-amine]	< 1 µM	–	SYK (enzyme assay) % at 3 μM (SYK; [2]): −13@3%
COc1cc(Nc2nc3cncc(-c4cnn(C)c4)n3n2)ccc1NC(=O)C1CCOCC1 [Compound A89, tetrahydro-pyran-4-carboxylic acid {2-methoxy-4-[5-(1-methyl-1H-pyrazol-4-yl)-[1,2,4]triazolo[1,5-a]pyrazin-2-ylamino]-phenyl}-amide]	< 1 µM	5 to 10 µM	–
COc1cc(Nc2nc3cncc(-c4ccc(N5CCOCC5)cc4)n3n2)ccc1N1CCN(C)CC1 [Compound A91, [3-methoxy-4-(4-methyl-piperazin-1-yl)-phenyl]-[5-(4-morpholin-4-yl-phenyl)-[1,2,4]triazolo[1,5-a]pyrazin-2-yl]-amine]	< 1 µM	1 to 5 µM	–
COc1ccc(-c2cncc3nc(Nc4ccc(N5CCN(C)CC5)c(OC)c4)nn23)cc1 [Compound A92, [3-methoxy-4-(4-methyl-piperazin-1-yl)-phenyl]-[5-(4-methoxy-phenyl)-[1,2,4]triazolo[1,5-a]pyrazin-2-yl]-amine]	< 1 µM	< 1 µM	–
COc1cc(Nc2nc3cncc(-c4ccc(NS(C)(=O)=O)cc4)n3n2)ccc1N1CCN(C)CC1 [Compound A93, N-(4-{2-[3-methoxy-4-(4-methyl-piperazin-1-yl)-phenylamino]-[1,2,4]triazolo[1,5-a]pyrazin-5-yl}-phenyl)-methanesulfonamide]	< 1 µM	1 to 5 µM	–
CNS(=O)(=O)c1ccc(-c2cncc3nc(Nc4ccc(N5CCN(C)CC5)c(OC)c4)nn23)cc1 [Compound A94, 4-{2-[3-methoxy-4-(4-methyl-piperazin-1-yl)-phenylamino]-[1,2,4]triazolo[1,5-a]pyrazin-5-yl}-N-methyl-benzenesulfonamide]	< 1 µM	1 to 5 µM	–
COc1cc(Nc2nc3cncc(-c4cccc(NS(C)(=O)=O)c4)n3n2)ccc1N1CCN(C)CC1 [Compound A95, N-(3-{2-[3-methoxy-4-(4-methyl-piperazin-1-yl)-phenylamino]-[1,2,4]triazolo[1,5-a]pyrazin-5-yl}-phenyl)-methanesulfonamide]	< 1 µM	1 to 5 µM	–
COc1cc(Nc2ncc(F)c(Nc3ccc4c(n3)NC(=O)C(C)(C)O4)n2)cc(OC)c1OC [Compound R406]	–	–	bone erosion (murine model of RA): significantly reduced; clinical scores (murine model of RA): significant improvement; serum cytokine concentrations (murine model of RA): significantly reduced; efficacy (ACR scores) (RA): efficacy (ACR scores improvement); tolerability (RA): good tolerability
N=C(NO)NCC[C@H](N)C(=O)O [N-hydroxy-nor-L-Arg]	–	–	growth of s.c. 3 LL lung carcinoma (3 LL lung carcinoma): blocks growth
